Experimental findings from patent US20080045514A1 (Cytovia, Inc., priority 2006, published 2008) are described below.

Broadly, the EC50 is the concentration that produces a half-maximal response. As usually defined, the GI50 is the concentration at which growth is held to half of that of the control. High values mean less potent growth inhibition, low ones more potent growth inhibition.

Holding throughout (assay type): cell-based
The subject of assay [1] is human breast cancer cell line T-47D. In words: Caspase cascade activation (EC50), T-47D. The following applies: Homo sapiens; T47D cells; caspase cascade activation; read-out: caspase potency (EC50) T47D. In outline: (§1)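 Cells in ATCC medium plus 10% FCS, seeded at 0.65×10^6 cells/mL, incubated with compound at 0.016 to 10 μM final, 48 h, 37 °C. Lysis-substrate buffer (14 μM DEVD-R110, 20 mM DTT, pH 7.2, lysolecithin) added; fluorescence read after 3 h at room temperature.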

In assay [2] the test system is human hepatocellular carcinoma cell line SNU398. In words: Caspase cascade activation (EC50), SNU398. The conditions noted are these: Homo sapiens, SNU-398; SNU398 cells; caspase cascade activation; read-out: caspase potency (EC50) SNU398. In outline:
as §1

Assay [3] has as its system human colon carcinoma cell line HCT116. Kind of assay: Caspase cascade activation (EC50), HCT116. The following applies: Homo sapiens, HCT-116; HCT116 cells; caspase cascade activation; read-out: caspase potency (EC50) HCT116. An outline of the steps:
as §1

In assay [4] the test system is human Burkitt's lymphoma cell line Namalwa. In words: Caspase cascade activation (EC50), Namalwa. The conditions noted are these: Homo sapiens, Burkitts lymphoma cell; Namalwa cells; caspase cascade activation; read-out: caspase potency (EC50) Namalwa. In outline: as §1
The subject of assay [5] is human lymphoma cell line Raji. Kind of assay: Caspase cascade activation (EC50), Raji. The following applies: Homo sapiens, RAJI cells, read-out: caspase potency (EC50) RAJI. An outline of the steps: as §1
The subject of assay [6] is human B cell lymphoblastoid cell line Ramos. In words: Caspase cascade activation (EC50), Ramos. The following applies: Homo sapiens, RAMOS cells, read-out: caspase potency (EC50) RAMOS. In outline: as §1
The subject of assay [7] is human breast cancer cell line T-47D. Kind of assay: Inhibition of cell proliferation (GI50), T47D. The following applies: Homo sapiens; T47D cells, 48 h, CellTiter-Glo. In outline:
(§2)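 Growth inhibition is determined as the compound concentration halving proliferation relative to a time-zero (0.5 h) luminescence baseline and drug-free maximum. Cells (4.4×10^4 cells/mL) are treated 48 h at 37 °C over a 1 nM–10 μM final range, and ATP content is measured with CellTiter-Glo.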
A general note: In ATP-based viability assays light output follows the ATP content of the culture.

Assay [8] concerns human hepatocellular carcinoma cell line SNU398. Kind of assay: Inhibition of cell proliferation (GI50), SNU398. The conditions noted are these: Homo sapiens; SNU 398 cells, 48 h, CellTiter-Glo. In outline: as §2
Assay [9] has as its system human colon carcinoma cell line HCT116. Kind of assay: Inhibition of cell proliferation (GI50), HCT116. The following applies: Homo sapiens; HCT 116 cells, 48 h, CellTiter-Glo. In outline: as §2
The test system of assay [10] is human Burkitt's lymphoma cell line Namalwa. In words: Inhibition of cell proliferation (GI50), Namalwa. The conditions noted are these: Homo sapiens, Burkitts lymphoma cell; Namalwa cells, 48 h, CellTiter-Glo. An outline of the steps: as §2
The subject of assay [11] is human cancer cell line H1299. Kind of assay: Caspase cascade activation (EC50), H1299. The following applies: NCI-H1299, H1299 cells, read-out: caspase potency (EC50) H1299. In outline: as §1
Assay [12] relates to human lung cancer cell line H1299. In words: Inhibition of cell proliferation (GI50), H1299. The conditions noted are these: NCI-H1299, H1299 cells, 48 h, CellTiter-Glo. As for the experimental part: Human breast cancer cell lines T-47D, human hepatocellular carcinoma cell line SNU398, human colon carcinoma cell line HCT116, human lung cancer cell line H1299, human leukemia cell line K562, human lymphoma cell line Raji, human B cell lymphoblastoid cell line Ramos, and human Burkitt's lymphoma cell line Namalwa were grown and harvested as in Example 100. An aliquot of […] of cells (4.4×10^4 cells/mL) was added to a well of a 96-well microtiter plate containing 5 μL of a 10% DMSO in RPMI-1640 media solution containing 10 nM to 100 μM of 3-(2-chlorophenyl)-6-(3,4-methylenedioxyphenyl)-7H-[1,2,4]triazolo[3,4-b][1,3,4]thiadiazine (1 nM to 10 μM final). An aliquot of 45 μL of cells was added to a well of a 96-well microtiter plate containing 5 μL of a 10% DMSO in RPMI-1640 media solution without compound as the control sample for maximal cell proliferation (LMax). The samples were mixed by agitation and then incubated at 37° C. for 48 h in a 5% CO2-95% humidity incubator. After incubation, the samples were removed from the incubator and 25 μL of CellTiter-Glo™ reagent (Promega) was added. The samples were mixed by agitation and incubated at room temperature for 10-15 min. Plates were then read using a luminescent plate reader (Model SPECTRAfluor Plus, Tecan) to give Ltest values.
The samples were mixed by agitation and then incubated at 37° C. for 0.5 h in a 5% CO2-95% humidity incubator. After incubation, the samples were removed from the incubator and 25 μL of CellTiter-Glo™ reagent (Promega) was added. The samples were mixed by agitation and incubated at […] 10-15 min at room temperature in a 5% CO2-95% humidity incubator. Fluorescence was read as above, (LStart) defining luminescence for initial cell number used as baseline in GI50 determinations.
Calculation: GI50 (dose for 50% inhibition of cell proliferation) is the concentration where [(Ltest−LStart)/(LMax−LStart)]=0.5.

Assay [13] deals with human leukemia cell line K562. Kind of assay: Inhibition of cell proliferation (GI50), K562. The following applies: Homo sapiens; K562 cells, 48 h, CellTiter-Glo. An outline of the steps:
as §2

The test system of assay [14] is human lymphoma cell line Raji. In words: Inhibition of cell proliferation (GI50), Raji. The following applies: Homo sapiens; Raji cells, 48 h, CellTiter-Glo. In outline: as §2
The subject of assay [15] is human B cell lymphoblastoid cell line Ramos. In words: Inhibition of cell proliferation (GI50), Ramos. The conditions noted are these: Homo sapiens; Ramos cells, 48 h, CellTiter-Glo. An outline of the steps:
as §2

Counter-ions that a name gives are not always drawn.

Turning to `COc1ccc(C2=Nn3c(nnc3-c3ccc(OC)cc3OC)SC2)cc1` [Example 18, 3-(2,4-Dimethoxyphenyl)-6-(4-methoxyphenyl)-7H-[1,2,4]triazolo[3,4-b][1,3,4]thiadiazine hydrochloride], the EC50 in [1] is 32 nM; in assay [2], 6 nM; in assay [3], 17 nM; in [4], 7 nM; in [5], 15 nM; in [6], 7 nM. Moreover, the 50% growth inhibitory concentration (GI50) is 28 nM in [7], 1 nM in [8], 34 nM in [9] and 6 nM in [10].

Regarding `COc1ccc(C2=Nn3c(nnc3-c3ccc(OC)c(OC)c3)SC2)cc1OC` [Example N1, 3-(3,4-Dimethoxyphenyl)-6-(3,4-dimethoxyphenyl)-7H-[1,2,4]triazolo[3,4-b][1,3,4]thiadiazine], the EC50 in [1] is 2220 nM; in [2] it was 1310 nM; in [3] it was 2480 nM; in assay [11], 2420 nM; in assay [4], 556 nM; in [5], 570 nM. For the same molecule, the EC50 in assay [6] is 586 nM. Further, the concentration for 50% growth inhibition (GI50) in assay [7] is 2650 nM; in assay [12] it was 1940 nM.

As to `COc1ccccc1-c1nnc2n1N=C(c1ccc(Br)cc1)CS2` [W, 3-(2-Methoxyphenyl)-6-(4-bromophenyl)-7H-[1,2,4]triazolo[3,4-b][1,3,4]thiadiazine], the half-maximal effective concentration (EC50) in assay [1] worked out at 313 nM; in assay [2], 164 nM; in assay [3] it was 243 nM; in [11], 552 nM; in assay [5], 322 nM; in assay [6], 175 nM. The GI50 turned out to be 135 nM in assay [7]; 489 nM in [9]; 161 nM in assay [12]; 178 nM in [13]; 299 nM in assay [14]; 141 nM in assay [15]. The molecule further came in with a GI50 in [10] of 314 nM.

As to `CCOc1ccccc1-c1nnc2n1N=C(c1ccc(C)cc1)CS2` [Example 19, 3-(2-Ethoxyphenyl)-6-(4-methylphenyl)-7H-[1,2,4]triazolo[3,4-b][1,3,4]thiadiazine hydrobromide], the concentration giving a half-maximal response (EC50) in assay [1] was 35 nM; in assay [2], 24 nM; in assay [3] it was 32 nM; in assay [4] it was 17 nM; in assay [5], 29 nM; in assay [6], 20 nM. The concentration for 50% growth inhibition (GI50) in assay [7] was 48 nM; in assay [8], 12 nM; in assay [9] it was 67 nM; in [10], 12 nM.

With `Cc1cccc(-c2nnc3n2N=C(c2ccc4c(c2)OCO4)CS3)c1` [Example T, 3-(3-Methylphenyl)-6-(3,4-methylenedioxyphenyl)-7H-[1,2,4]triazolo[3,4-b][1,3,4]thiadiazine], the concentration giving a half-maximal response (EC50) in assay [1] was determined as 345 nM; in assay [2], 243 nM; in assay [3], 471 nM; in assay [11], 1230 nM; in assay [4], 261 nM; in assay [5] it was 221 nM. In assay [6], the EC50 worked out at 262 nM. For the same molecule, the results for the GI50 in assay [7] and in assay [12] were 375 nM and 314 nM, respectively.

`COc1ccc(C2=Nn3c(nnc3-c3ccccc3C)SC2)cc1OC` [K, 3-(2-Methylphenyl)-6-(3,4-dimethoxyphenyl)-7H-[1,2,4]triazolo[3,4-b][1,3,4]thiadiazine]: the EC50 in assay [1] was 5130 nM; in assay [2], 316 nM; in [3], 578 nM; in assay [11], 697 nM; in assay [4], 267 nM; in assay [5], 479 nM. In addition, the EC50 in assay [6] worked out at 272 nM. In addition, the 50% growth inhibitory concentration (GI50) in assay [7] was determined as 2620 nM; in assay [12] it was 667 nM.

Consider `c1cc2c(cc1C1=Nn3c(nnc3-c3n[nH]c4c3CCC4)SC1)OCO2` [Example W2], for which the EC50 came out at 431 nM in assay [1]; 506 nM in [2]; 599 nM in assay [3]; 592 nM in assay [4]; 710 nM in assay [5]; 523 nM in [6]. Also, the GI50 in assay [7] is 1500 nM; in assay [8], 294 nM; in [9], 5900 nM; in assay [13] it was 1870 nM; in [14], 3000 nM; in assay [15], 1290 nM. The GI50 in assay [10] is 2550 nM.

`Clc1ccc(-c2nnc3n2N=C(c2ccc4c(c2)OCO4)CS3)cc1` [G, 3-(4-Chlorophenyl)-6-(3,4-methylenedioxyphenyl)-7H-[1,2,4]triazolo[3,4-b][1,3,4]thiadiazine]: the half-maximal effective concentration (EC50) is 513 nM in assay [1]; 273 nM in assay [2]; 849 nM in [3]; 1420 nM in assay [11]; 265 nM in assay [4]; 393 nM in assay [5]. In assay [6], the EC50 stood at 481 nM. The concentration for 50% growth inhibition (GI50) in assay [7] was determined as 97 nM; in [12], 307 nM.

Regarding `COc1ccc(C2=Nn3c(nnc3-c3ccccc3Cl)SC2)cc1OC` [N, 3-(2-Chlorophenyl)-6-(3,4-dimethoxyphenyl)-7H-[1,2,4]triazolo[3,4-b][1,3,4]thiadiazine], the EC50 was 2400 nM in assay [1]; 367 nM in [2]; 559 nM in assay [3]; 755 nM in assay [11]; 278 nM in [4]; 502 nM in assay [5]. Moreover, the EC50 in assay [6] is 278 nM. Further, the GI50 came to 2540 nM in assay [7] and 510 nM in [12].

Regarding `COc1ccccc1-c1nnc2n1N=C(c1ccc(C)cc1)CS2` [Example 8, 3-(2-Methoxyphenyl)-6-(4-methylphenyl)-7H-[1,2,4]triazolo[3,4-b][1,3,4]thiadiazine hydrochloride], the EC50 was determined as 146 nM in assay [1]; 25 nM in assay [2]; 60 nM in assay [3]; 31 nM in [4]; 57 nM in assay [5]; 30 nM in [6]. Moreover, the 50% growth inhibitory concentration (GI50) in assay [7] came to 17 nM; in [8] it was 150 nM; in [9] it was 15 nM; in assay [13], 43 nM; in [14], 27 nM; in assay [15], 16 nM. Further, it took 66 nM to inhibit growth in assay [10] by half (GI50).
